Measured values reported in US10941158B2, “Pyrazole ACC inhibitors and uses thereof” (Gilead Apollo, LLC, priority 2015, dated 2021).
Converted amounts (≈) assume the structure as drawn. Like-named read-outs stand apart in the source and are kept apart here.

What was measured:
C. krusei ATCC 6258 = test: Anti-Fungal (Candida) Activity Assay, broth microtiter MIC; type: cell-based; conditions: Pichia kudriavzevii, ATCC6258, 48 h, read-out: MIC C. krusei ATCC 6258
Experimental: (§1) Compounds of the present invention were evaluated in an Anti-Fungal Activity Assay. An exemplary procedure for the assay, which measures the susceptibility of various Candida species to anti-fungal compounds, follows. Compounds to be tested (including fluconazole and amphotericin B) were dissolved in DMSO to obtain a solution having a concentration of 1 mg/mL. […] All species were grown from frozen stock by directly plating on to freshly prepared Sabouraud Dextrose agar (BD, Difco) and incubated overnight in ambient air at 35° C. for 24 h. A direct suspension was prepared in RPMI 1640+MOPS (Lonza, Biowhittaker) by taking individual colonies from the overnight cultures using sterile swabs soaked in sterile saline. The concentration of the suspension was determined using pre-determined standard curves. […] Broth microtiter MIC challenge plates were prepared following CLSI guidelines (M27-A3, Vol. 28 No. 14). The original CLSI guidelines focused on reading Candida MICs after 48 h of incubation. As reading after only 24 h offers a clear advantage of patient care, QC limits are being established for all drugs at 24 h. That being said there are no known interpretive breakpoints for amphotericin B at 24 h and the current fluconazole interpretive breakpoints are based on a 48 h reading. The MIC for the test compounds were recorded at 48 h. All MIC determinations were achieved by visually comparing the growth found in the antibiotic challenged wells to that of the growth control.

C. albicans ATCC 90028 = test: as above; type: cell-based; conditions: ATCC90028, 48 h, read-out: MIC C. albicans ATCC 90028
Experimental: as §1

[1] = test system: C. parapsilosis ATCC 22019; test: as above; type: cell-based; conditions: Lodderomyces parapsilosis, ATCC22019, 48 h, read-out: MIC C. parapsilosis ATCC 22019
Experimental: as §1

human (hACC2) ACC2 = human (hACC2) ACC2 (Homo sapiens, UniProt O00763); test: In vitro Acetyl-CoA Carboxylase (ACC) inhibition assay (ADP-Glo), hACC2; type: biochemical
Experimental: The detailed procedure is as follows. […] 10 μL ADP glo reagent was added. […] 20 μL kinase detection reagent was added.
“NA” stands for “not assayed.”

[2] = test system: Phytophthora capsici (Pc); test: Growth inhibition assay of fungal pathogens; type: cell-based; conditions: Phytophthora capsici, 48 h, read-out: Concentration at 90% Inhibition Pc
Experimental: (§2) Compounds of the present invention were evaluated in a growth inhibition assay to determine the ability to control the growth of fungal pathogens, such as Botrtyis cinerea (Bc), Collectotrichum graminicola (Cg). Diplodia maydis (Dm), Fusarium moniliforme (Fm), Fusarium virguliforme (Fv), Phytophthora capsici (Pc), Rhizoctonia solani (Rs), and Septoria tritici (St). Compounds to be tested were dissolved in DMSO at 2.5 mg/ml to produce compound stock solutions (“stocks”). Stocks were diluted with DMSO by a five-fold dilution in a 96-well stock plate, and two sets of final concentrations of 50, 10, and 2 ppm or 2, 0.4, and 0.08 ppm were obtained in vitro. A set of positive controls was also prepared, with various concentrations of Soraphen (2, 0.4, and 0.08 ppm), Metalaxyl (1.1, 0.22, and 0.04 ppm), and Metconazole (2, 0.4, and 0.08 ppm or 0.2, 0.04, and 0.008 ppm) after the five-fold dilutions. Negative controls on each plate included 2% DMSO, water, and a blank (media+2% DMSO). Fungal spores were isolated from previously sub-cultured plates of Botrtyis cinerea (Bc). Collectotrichum graminicola (Cg). Diplodia maydis (Dm), Fusarium moniliforme (Fm), Fusarium virguliforme (Fv), Phytophthora capsici (Pc), and Septoria tritici (St). The isolated spores were diluted to individual concentrations with a 17% V8 liquid media. For Rhizoctonia solani (Rs) and Pythium irregulare, 1.5 mm mycelial plugs were used in place of spores and ¼ Potato Dextrose Broth (PDB) was used for dilution. The spore concentrations and plug sizes were based on growth curves generated at 48 hours for each pathogen. In a second 96-well plate, the spores or mycelial plugs, media, diluted compound solutions, and controls were combined. Once the compound was added, a true final concentration of compound in each well was measured by an OD600 reading, which adjusted for any compound precipitation that might have occurred in the well. Plate readings were repeated at both 24 and 48 hours. The blank negative control was used as a background subtraction. Additional visual ratings were performed at both 24 and 48 hours for checking on precipitation and confirming efficacy. Visual and OD600 ratings of the compounds at 48 hours were compared to the 2% DMSO negative control, and the percent of pathogen growth inhibition was determined based on those values.

[3] = test system: Fusarium moniliforme (Fm); test: Growth inhibition assay of fungal pathogens; type: cell-based; conditions: for IC90: Fusarium verticillioides, 48 h, read-out: Concentration at 90% Inhibition Fm; for Concentration at 90% Inhibition Fm: Table 4b, 48 hours
Experimental: as §2

Rhizoctonia solani (Rs) = test: Growth inhibition assay of fungal pathogens; type: cell-based; conditions: 48 h, read-out: Concentration at 90% Inhibition Rs
Experimental: as §2

Diplodia maydis (Dm) = test: Growth inhibition assay of fungal pathogens; type: cell-based; conditions: Stenocarpella maydis, 48 h, read-out: Concentration at 90% Inhibition Dm
Experimental: as §2

Botrtyis cinerea (Bc) = test: Growth inhibition assay of fungal pathogens; type: cell-based; conditions: 48 h, read-out: Concentration at 90% Inhibition Bc
Experimental: as §2

[4] = test system: Fusarium virguliforme (Fv); test: Growth inhibition assay of fungal pathogens; type: cell-based; conditions: 48 h
Experimental: as §2

[5] = test system: Collectotrichum graminicola (Cg); test: Growth inhibition assay of fungal pathogens; type: cell-based; conditions: 48 h, read-out: Concentration at 90% Inhibition Cg
Experimental: as §2

Septoria tritici (St) = test: Growth inhibition assay of fungal pathogens; type: cell-based; conditions: Zymoseptoria tritici, 48 h, read-out: Concentration at 90% Inhibition St
Experimental: as §2

[6] = read-out: Concentration at 90% Inhibition Fv, Table 4a, 48 hours
[7] = read-out: Concentration at 90% Inhibition Fv, Table 4b, 48 hours

human (hACC2) ACC2, sequence (O00763 whole entry): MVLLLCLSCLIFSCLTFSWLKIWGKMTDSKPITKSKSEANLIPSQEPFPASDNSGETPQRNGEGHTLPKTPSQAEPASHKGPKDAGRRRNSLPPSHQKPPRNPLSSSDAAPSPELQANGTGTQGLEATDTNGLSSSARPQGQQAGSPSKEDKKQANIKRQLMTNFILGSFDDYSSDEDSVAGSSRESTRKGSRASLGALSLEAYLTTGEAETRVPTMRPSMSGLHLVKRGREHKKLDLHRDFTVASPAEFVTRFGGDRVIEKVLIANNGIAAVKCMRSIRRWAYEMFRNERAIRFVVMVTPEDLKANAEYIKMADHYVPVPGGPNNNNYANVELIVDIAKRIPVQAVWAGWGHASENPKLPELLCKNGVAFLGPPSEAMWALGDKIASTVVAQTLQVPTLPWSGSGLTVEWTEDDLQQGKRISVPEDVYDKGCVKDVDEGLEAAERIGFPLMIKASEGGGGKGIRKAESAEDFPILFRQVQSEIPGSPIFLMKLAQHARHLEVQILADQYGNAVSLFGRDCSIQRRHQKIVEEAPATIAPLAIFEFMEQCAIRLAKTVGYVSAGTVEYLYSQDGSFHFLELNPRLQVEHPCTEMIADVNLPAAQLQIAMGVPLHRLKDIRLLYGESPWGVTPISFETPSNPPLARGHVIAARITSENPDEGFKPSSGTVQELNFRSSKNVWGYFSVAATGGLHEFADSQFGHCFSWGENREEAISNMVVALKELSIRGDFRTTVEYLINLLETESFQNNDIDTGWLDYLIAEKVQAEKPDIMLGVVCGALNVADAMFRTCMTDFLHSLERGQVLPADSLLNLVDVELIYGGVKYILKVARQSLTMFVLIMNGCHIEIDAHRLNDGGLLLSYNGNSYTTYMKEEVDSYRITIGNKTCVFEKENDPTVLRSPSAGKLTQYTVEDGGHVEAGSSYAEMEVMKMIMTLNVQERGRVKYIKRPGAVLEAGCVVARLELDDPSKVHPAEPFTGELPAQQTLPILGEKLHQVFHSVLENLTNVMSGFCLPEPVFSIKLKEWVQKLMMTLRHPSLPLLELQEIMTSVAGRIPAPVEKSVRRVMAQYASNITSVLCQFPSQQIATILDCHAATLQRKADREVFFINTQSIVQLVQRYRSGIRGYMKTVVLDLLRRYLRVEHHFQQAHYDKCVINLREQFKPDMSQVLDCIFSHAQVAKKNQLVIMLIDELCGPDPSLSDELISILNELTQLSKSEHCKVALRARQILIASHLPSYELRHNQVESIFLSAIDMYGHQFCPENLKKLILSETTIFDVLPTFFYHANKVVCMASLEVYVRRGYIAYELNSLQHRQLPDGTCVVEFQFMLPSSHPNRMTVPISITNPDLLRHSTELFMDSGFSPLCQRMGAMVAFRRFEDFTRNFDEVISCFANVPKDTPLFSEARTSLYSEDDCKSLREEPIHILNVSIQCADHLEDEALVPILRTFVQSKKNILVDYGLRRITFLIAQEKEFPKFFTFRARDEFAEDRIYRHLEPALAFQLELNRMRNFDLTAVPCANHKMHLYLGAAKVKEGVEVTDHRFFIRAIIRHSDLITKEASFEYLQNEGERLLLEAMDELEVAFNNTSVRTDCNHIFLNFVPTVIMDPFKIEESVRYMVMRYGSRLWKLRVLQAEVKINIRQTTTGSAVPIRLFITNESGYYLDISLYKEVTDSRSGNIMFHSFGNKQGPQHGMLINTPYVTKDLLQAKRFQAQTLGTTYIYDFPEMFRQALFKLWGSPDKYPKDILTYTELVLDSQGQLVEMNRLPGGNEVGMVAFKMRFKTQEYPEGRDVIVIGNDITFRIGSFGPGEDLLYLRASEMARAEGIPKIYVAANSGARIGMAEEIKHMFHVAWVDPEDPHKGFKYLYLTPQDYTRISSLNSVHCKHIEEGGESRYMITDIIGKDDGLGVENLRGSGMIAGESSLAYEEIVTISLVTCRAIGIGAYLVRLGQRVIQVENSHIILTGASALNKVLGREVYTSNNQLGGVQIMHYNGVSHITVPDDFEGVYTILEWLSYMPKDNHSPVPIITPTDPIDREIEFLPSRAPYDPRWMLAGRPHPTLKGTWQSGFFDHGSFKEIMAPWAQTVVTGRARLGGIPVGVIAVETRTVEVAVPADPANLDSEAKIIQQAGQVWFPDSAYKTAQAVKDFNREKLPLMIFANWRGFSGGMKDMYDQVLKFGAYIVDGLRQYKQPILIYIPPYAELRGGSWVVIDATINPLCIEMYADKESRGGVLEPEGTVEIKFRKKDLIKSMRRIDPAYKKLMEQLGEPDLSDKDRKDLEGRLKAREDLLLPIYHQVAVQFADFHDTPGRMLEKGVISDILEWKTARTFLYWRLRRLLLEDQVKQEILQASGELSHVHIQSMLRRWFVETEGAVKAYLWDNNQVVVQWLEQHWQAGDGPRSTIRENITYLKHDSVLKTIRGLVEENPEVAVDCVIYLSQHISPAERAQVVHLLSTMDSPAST

In the case of `COc1ccccc1[C@H](Cn1c(=O)n(C(C)(C)C(=O)NC(C)C)c(=O)c2c(C)c(-n3cccn3)sc21)OC(C)C` [Compound I-17, (R)-2-(l-(2-isopropoxy-2-(2-methoxyphenyl)ethyl)-5-methyl-2,4-dioxo-6-(H-pyrazol-1-yl)-1,4-dihydrothieno[2,3-d]pyrimidin-3(2H)-yl)-N-isopropyl-2-methylpropanamide], the MIC (C. krusei ATCC 6258) is reported as 0.25 to 1 µg/mL (≈ 0.44 to 1.76 µM), the MIC (C. albicans ATCC 90028) is reported as 0.25 to 1 µg/mL (≈ 0.44 to 1.76 µM) and the MIC [1] is reported as 0.25 to 1 µg/mL (≈ 0.44 to 1.76 µM). For the same compound, the IC50 (human (hACC2) ACC2) was 3 to 10 nM, the IC90 ([2]; Table 4a) was greater than 50 µg/mL and the IC90 ([2]; Table 4b) was greater than 50 µg/mL. The IC90 [3] was 0.4 µg/mL (≈ 0.705 µM), the “Concentration at 90% Inhibition Fm” value [3] was “A (“A” provided a compound concentration of 0.4 ppm at 90% inhibition of fungal pathogens)” and the IC90 (Rhizoctonia solani (Rs); Table 4a) was greater than 50 µg/mL. The IC90 (Rhizoctonia solani (Rs); Table 4b) was greater than 50 µg/mL, the IC90 (Diplodia maydis (Dm); Table 4a) was 2 µg/mL (≈ 3.52 µM) and the IC90 (Diplodia maydis (Dm); Table 4b) was 2 µg/mL (≈ 3.52 µM). For the same compound, the IC90 (Botrtyis cinerea (Bc); Table 4a) was 2 µg/mL (≈ 3.52 µM), the IC90 (Botrtyis cinerea (Bc); Table 4b) was 2 µg/mL (≈ 3.52 µM) and the IC90 [4, 6] was 0.4 µg/mL (≈ 0.705 µM). It also gave an IC90 [4, 7] of 0.4 µg/mL (≈ 0.705 µM), an IC90 ([5]; Table 4a) greater than 50 µg/mL and an IC90 ([5]; Table 4b) of 10 µg/mL (≈ 17.6 µM). It also gave an IC90 (Septoria tritici (St); Table 4a) greater than 50 µg/mL and an IC90 (Septoria tritici (St); Table 4b) greater than 50 µg/mL.
In the case of `COc1ccccc1[C@H](Cn1c(=O)n(C(C)(C)C(=O)N2CCCCC2)c(=O)c2c(C)c(-n3cccn3)sc21)OC(C)C` [Compound I-19, (R)-1-(2-isopropoxy-2-(2-methoxyphenyl)ethyl)-5-methyl-3-(2-methyl-1-oxo-1-(piperidin-1-yl)propan-2-yl)-6-(H-pyrazol-1-yl)thieno[2,3-d]pyrimidine-2,4(1H,3H)-dione], the MIC (C. krusei ATCC 6258) is reported as 2.1 to 4 µg/mL (≈ 3.54 to 6.74 µM), the MIC (C. albicans ATCC 90028) is reported as greater than 4.1 µg/mL and the MIC [1] is reported as greater than 4.1 µg/mL. For the same compound, the IC50 (human (hACC2) ACC2) was 10 to 40 nM, the IC90 ([2]; Table 4a) was greater than 50 µg/mL and the IC90 ([2]; Table 4b) was greater than 50 µg/mL. The IC90 [3] was 0.08 µg/mL (≈ 0.135 µM), the “Concentration at 90% Inhibition Fm” value [3] was “AA (“AA” provided a compound concentration of 0.08 ppm at 90% inhibition of fungal pathogens)” and the IC90 (Rhizoctonia solani (Rs); Table 4a) was 2 µg/mL (≈ 3.37 µM). The IC90 (Rhizoctonia solani (Rs); Table 4b) was 2 µg/mL (≈ 3.37 µM), the IC90 (Diplodia maydis (Dm); Table 4a) was 2 µg/mL (≈ 3.37 µM) and the IC90 (Diplodia maydis (Dm); Table 4b) was 2 µg/mL (≈ 3.37 µM). It also gave an IC90 (Botrtyis cinerea (Bc); Table 4a) of 0.4 µg/mL (≈ 0.674 µM), an IC90 (Botrtyis cinerea (Bc); Table 4b) of 0.4 µg/mL (≈ 0.674 µM) and an IC90 [4, 6] of 0.4 µg/mL (≈ 0.674 µM). The IC90 [4, 7] was 0.4 µg/mL (≈ 0.674 µM), the IC90 ([5]; Table 4a) was 10 µg/mL (≈ 16.8 µM) and the IC90 ([5]; Table 4b) was 2 µg/mL (≈ 3.37 µM). For the same compound, the IC90 (Septoria tritici (St); Table 4a) was greater than 50 µg/mL and the IC90 (Septoria tritici (St); Table 4b) was greater than 50 µg/mL.
`COc1ccccc1[C@H](Cn1c(=O)n(C(C)(C)C(=O)NC(C)C)c(=O)c2c(C)c(-n3cccn3)sc21)OCC(C)C` [Compound I-21, (R)-2-(1-(2-isobutoxy-2-(2-methoxyphenyl)ethyl)-5-methyl-2,4-dioxo-6-(1H-pyrazol-1-yl)-1,4-dihydrothieno[2,3-d]pyrimidin-3(2H)-yl)-N-isopropyl-2-methylpropanamide] showed an MIC (C. krusei ATCC 6258) of 0.25 to 1 µg/mL (≈ 0.43 to 1.72 µM), an MIC (C. albicans ATCC 90028) of 0.25 to 1 µg/mL (≈ 0.43 to 1.72 µM) and an MIC [1] of 0.25 to 1 µg/mL (≈ 0.43 to 1.72 µM). The IC50 (human (hACC2) ACC2) was 10 to 40 nM, the IC90 ([2]; Table 4a) was greater than 50 µg/mL and the IC90 ([2]; Table 4b) was greater than 50 µg/mL. For the same compound, the IC90 [3] was 0.4 µg/mL (≈ 0.688 µM), the “Concentration at 90% Inhibition Fm” value [3] was “A (“A” provided a compound concentration of 0.4 ppm at 90% inhibition of fungal pathogens)” and the IC90 (Rhizoctonia solani (Rs); Table 4a) was 2 µg/mL (≈ 3.44 µM). The IC90 (Rhizoctonia solani (Rs); Table 4b) was 2 µg/mL (≈ 3.44 µM), the IC90 (Diplodia maydis (Dm); Table 4a) was 10 µg/mL (≈ 17.2 µM) and the IC90 (Diplodia maydis (Dm); Table 4b) was 2 µg/mL (≈ 3.44 µM). It also gave an IC90 (Botrtyis cinerea (Bc); Table 4a) of 2 µg/mL (≈ 3.44 µM), an IC90 (Botrtyis cinerea (Bc); Table 4b) of 2 µg/mL (≈ 3.44 µM) and an IC90 [4, 6] greater than 50 µg/mL. It also gave an IC90 [4, 7] of 10 µg/mL (≈ 17.2 µM), an IC90 ([5]; Table 4a) greater than 50 µg/mL and an IC90 ([5]; Table 4b) of 10 µg/mL (≈ 17.2 µM). For the same compound, the IC90 (Septoria tritici (St); Table 4a) was greater than 50 µg/mL and the IC90 (Septoria tritici (St); Table 4b) was greater than 50 µg/mL.
